This note sets out measurements from patent US6413971B1, “Fused bicyclic pyrimidine derivatives” (Pfizer Inc, priority 1996, dated 2002).

Each structure is given as a SMILES string. Where a name gives a salt, the structure may show the parent alone.

As for `c1cc2c(Nc3ccc4sccc4c3)ncnc2cn1` (as salt: hydrochloride) [Example 25, Benzo[b]thiophen-5-yl-pyrido[3,4-d]pyrimidin-4-yl-amine], the melting point fell in the range of 280 to 282 °C.
As for `C#Cc1cccc(Nc2ncnc3c2ccn3CCOCCOC)c1` [Example 13, (3-Ethynyl-phenyl)-{7-[2-(2-methoxy-ethoxy)-ethyl]-7H-pyrrolo[2,3-d]pyrimidin4-yl}amine], the figure is 240 to 241 °C.
For `C#Cc1cccc(Nc2ncnc3[nH]cc(-c4cccs4)c23)c1` [Example 27, (3-Ethynyl-phenyl)-(5-thiophen-2-yl-7H-pyrrolo[2,3-d]pyrimidin4-yl]-amine], the melting point lay within 230 to 232 °C.
As for `C#Cc1cccc(Nc2ncnc3cnccc23)c1` (as salt: hydrochloride) [Example 24, (3-Ethynyl-phenyl)-pyrido[3,4-d]pyrimidin-4-yl-amine], the figure is 233 to 235 °C; as for `Clc1ccc2c(c1)N(c1ncnc3cnccc13)CC2` [Example 5, 4-(6-Chloro-2,3dihydro-indol-1-yl)-pyrido[3,4-d]pyrimidine], 194 to 196 °C; as for `Cc1cc2c(N3CCc4c(Br)ccc(C)c43)ncnc2cn1.Cl`, 232 to 244 °C.
Compound `Cc1cc2c(N3CCc4ccc(Br)c(C)c43)ncnc2cn1.Cl` displayed a melting point of 212 to 229 °C.
As to `Cc1cc2c(N3CCc4cc(F)c(Br)cc43)ncnc2cn1.Cl`, the melting point fell in the range of 262 to 264 °C.
For the compound `Cc1cc2c(N3CCc4ccc(Cl)cc43)ncnc2cn1` [Example 16, 4-(6Chloro-2,3-dihydro-indol-1-yl)-6methyl-pyrido[3,4-d]pyrimidine], the melting point was 232 to 234 °C.
Then `Oc1cc2ncnc(N3CCc4ccc(Cl)cc43)c2[nH]1` [Example 10, 4-(6Chloro-2,3dihydro-indol-1-yl)-5H-pyrrolo[3,2-d]pyrimidin-6-ol], with 250 °C (dec.).

In general, melting point refers to the temperature of the solid-liquid transition.
